# According to patent US20210221866A1, “PROTEASE-RESISTANT LIPIDATED GLP-1 ANALOGS” (MEDIMMUNE LIMITED, priority 2015, published 2021):
# Read-outs that look alike come from different tables or passages of the source. Numbered stars: 1 amine (or outer) side, 2 acyl side, 3 side chain; on linkers, the order of the positions; unused ones are H or OH. Square brackets hold non-standard residues; d marks the D form. Side chains are listed from the residue outwards. Peptide text beside a SMILES is read from it. * marks the point of attachment. γGlu = O=C(O)[C@H](CCC(=O)[*:2])N[*:1]; Palmitoyl = CCCCCCCCCCCCCCCC(=O)*; αMeF = C[C@](N)(Cc1ccccc1)C(=O)O; αMeK = C[C@](N)(CCCCN)C(=O)O; Lauroyl = CCCCCCCCCCCC(=O)*; αMeS = C[C@](N)(CO)C(=O)O; AEEA = NCCOCCOCC(=O)O; Aib = CC(C)(N)C(=O)O
# Biological target: T1, human GLP-1 receptor (GLP-1R) (Homo sapiens, UniProt P43220)
# T1 construct: expressed in transfected cells; host or cells: HEK293 cells or CHO cells
# Experiment: cAMP assay, human GLP-1R cells
# Format: cell-based
# Procedure: Sample dilutions are made in duplicate.
# A frozen cryo-vial of cells expressing the receptor of interest is thawed rapidly in a water-bath, transferred to pre-warmed assay buffer and spun at 240×g for 5 minutes. Cells are re-suspended in assay buffer at a batch-dependent optimized concentration (e.g. hGCGR cells at 2×10^5 cells/ml, hGLP-1R and hGIPR cells at 1×10^5 cells/ml).
# To this, 5 μL cell suspension is added and the plates incubated at room temperature for 30 minutes.
# cAMP levels are measured using a commercially available cAMP dynamic 2 HTRF kit (Cisbio, Cat #62AM4PEJ), following the two step protocol as per manufacturer's recommendations. In brief; anti-cAMP cryptate (donor fluorophore) and cAMP-d2 (acceptor fluorophore) are made up separately by diluting each 1/20 in conjugate & lysis buffer provided in the kit. 5 μL anti-cAMP cryptate is added to wells of the assay plate, and 5 μL cAMP-d2 is added to wells except non-specific binding (NSB) wells, to which conjugate and lysis buffer are added. […] EC50 values of the synthetic peptides determined in cAMP assays are then determined.
# Data is transformed to % Delta F as described in the manufacturer's guidelines and analyzed by 4-parameter logistic fit to determine EC50 values. […] To compare the balance of activities at the GLP-1R and GCGR between different peptides and across different conditions, these can be correlated, where the EC50's are related to those of comparator peptides.
# [1] = cAMP activity, mean of n1 and n2, read-out: Mean pM GLP-1R
# [2] = Table 11, tris-lipidated peptides, mean of n1 and n2, read-out: Primary assay EC50 Mean pM GLP-1R
# [3] = cAMP activity, second determination (n2), read-out: Primary assay EC50 GLP-1R n2
# T1 sequence (P43220 24-463): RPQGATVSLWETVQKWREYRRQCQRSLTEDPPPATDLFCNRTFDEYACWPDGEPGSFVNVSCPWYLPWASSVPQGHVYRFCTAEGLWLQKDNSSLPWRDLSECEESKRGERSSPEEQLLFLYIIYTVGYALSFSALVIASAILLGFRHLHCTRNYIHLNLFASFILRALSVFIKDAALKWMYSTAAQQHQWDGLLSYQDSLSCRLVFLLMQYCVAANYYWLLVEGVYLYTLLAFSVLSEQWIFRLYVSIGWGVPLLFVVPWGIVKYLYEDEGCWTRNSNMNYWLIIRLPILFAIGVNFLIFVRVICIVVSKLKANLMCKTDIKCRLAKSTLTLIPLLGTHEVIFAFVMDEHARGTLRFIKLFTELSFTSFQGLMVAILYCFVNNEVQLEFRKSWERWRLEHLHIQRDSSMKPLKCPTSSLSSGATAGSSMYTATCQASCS
EC50 [1],further results,Compound
801 pM,,CC[C@H](C)[C@H](NC(=O)[C@](C)(Cc1ccccc1)NC(=O)[C@H](CCC(=O)O)NC(=O)[C@](C)(CCCCN)NC(=O)[C@H](C)NC(=O)[C@H](C)NC(=O)[C@H](CCC(=O)O)NC(=O)CNC(=O)[C@H](CCC(=O)O)NC(=O)[C@H](CC(C)C)NC(=O)[C@](C)(Cc1ccccc1)NC(=O)[C@H](CO)NC(=O)[C@](C)(CO)NC(=O)[C@@H](NC(=O)[C@H](CC(=O)O)NC(=O)[C@@H](NC(=O)[C@@H](NC(=O)[C@](C)(Cc1ccccc1)NC(=O)[C@H](CO)NC(=O)CNC(=O)[C@H](CCC(=O)O)NC(=O)C(C)(C)NC(=O)[C@@H](N)Cc1c[nH]cn1)[C@@H](C)O)[C@@H](C)O)C(C)C)C(=O)N[C@@H](C)C(=O)N[C@@](C)(Cc1ccccc1)C(=O)N[C@H](C(=O)N[C@H](C(=O)N[C@@](C)(CCCCN)C(=O)NCC(=O)NCC(N)=O)C(C)C)C(C)C [compound 29] (H-H[Aib]EGS[αMeF]TTDV[αMeS]S[αMeF]LEGEAA[αMeK]E[αMeF]IA[αMeF]VV[αMeK]GG-NH2)
,EC50 [2]: 287 pM,CCCCCCCCCCCC(=O)N[C@@H](CCC(=O)NCCOCCOCC(=O)NCCOCCOCC(=O)NCCCC[C@H](NC(=O)CNC(=O)[C@H](CCC(=O)O)NC(=O)[C@H](CC(C)C)NC(=O)[C@H](Cc1ccc(O)cc1)NC(=O)[C@H](CO)NC(=O)[C@H](CO)NC(=O)[C@H](CCCCNC(=O)COCCOCCNC(=O)COCCOCCNC(=O)CC[C@H](NC(=O)CCCCCCCCCCC)C(=O)O)NC(=O)[C@H](CC(=O)O)NC(=O)[C@H](CO)NC(=O)[C@@H](NC(=O)[C@](C)(Cc1ccccc1)NC(=O)[C@H](CO)NC(=O)CNC(=O)[C@H](CCC(=O)O)NC(=O)C(C)(C)NC(=O)[C@@H](N)Cc1c[nH]cn1)[C@@H](C)O)C(=O)N[C@@H](C)C(=O)N[C@@H](C)C(=O)N[C@@](C)(CCCCN)C(=O)N[C@@H](CCC(=O)O)C(=O)N[C@@H](Cc1ccccc1)C(=O)N[C@H](C(=O)N[C@@H](C)C(=O)N[C@@H](Cc1ccccc1)C(=O)N[C@@H](CCCCNC(=O)COCCOCCNC(=O)COCCOCCNC(=O)CC[C@H](NC(=O)CCCCCCCCCCC)C(=O)O)C(=O)N[C@H](C(=O)N[C@@H](CCC(=O)O)C(=O)NCC(=O)NCC(N)=O)C(C)C)[C@@H](C)CC)C(=O)O [compound 472] (H-H[Aib]EGS[αMeF]TSDK([AEEA-AEEA-γGlu-Lauroyl])SSYLEGK([AEEA-AEEA-γGlu-Lauroyl])AA[αMeK]EFIAFK([AEEA-AEEA-γGlu-Lauroyl])VEGG-NH2; N-terminus assumed)
9 pM,EC50 [3]: 9.12 pM,CC[C@H](C)[C@H](NC(=O)[C@](C)(Cc1ccccc1)NC(=O)[C@H](CCC(=O)O)NC(=O)[C@](C)(CCCCN)NC(=O)[C@H](C)NC(=O)[C@H](C)NC(=O)[C@H](CCC(=O)O)NC(=O)CNC(=O)[C@H](CCC(=O)O)NC(=O)[C@H](CC(C)C)NC(=O)[C@H](CCCCNC(=O)COCCOCCNC(=O)COCCOCCNC(=O)CC[C@H](NC(=O)CCCCCCCCCCCCCCCCC(=O)O)C(=O)O)NC(=O)[C@H](CO)NC(=O)[C@](C)(CO)NC(=O)[C@@H](NC(=O)[C@H](CC(=O)O)NC(=O)[C@H](CO)NC(=O)[C@@H](NC(=O)[C@](C)(Cc1ccccc1)NC(=O)[C@H](CO)NC(=O)CNC(=O)[C@H](CCC(=O)O)NC(=O)C(C)(C)NC(=O)[C@@H](N)Cc1c[nH]cn1)[C@@H](C)O)C(C)C)C(=O)N[C@@H](C)C(=O)N[C@@](C)(Cc1ccccc1)C(=O)N[C@H](C(=O)N[C@H](C(=O)N[C@@](C)(CCCCN)C(=O)NCC(=O)NCC(N)=O)C(C)C)C(C)C [compound 116]
90 pM,,CC[C@H](C)[C@H](NC(=O)[C@](C)(Cc1ccccc1)NC(=O)[C@H](CCC(=O)O)NC(=O)[C@](C)(CCCCN)NC(=O)[C@H](C)NC(=O)[C@H](C)NC(=O)[C@H](CCC(=O)O)NC(=O)CNC(=O)[C@H](CCC(=O)O)NC(=O)[C@@H](NC(=O)[C@](C)(Cc1ccccc1)NC(=O)[C@H](CO)NC(=O)[C@H](CO)NC(=O)[C@@H](NC(=O)[C@H](CC(=O)O)NC(=O)[C@H](CO)NC(=O)[C@@H](NC(=O)[C@](C)(Cc1ccccc1)NC(=O)[C@H](CO)NC(=O)CNC(=O)[C@H](CCC(=O)O)NC(=O)C(C)(C)NC(=O)[C@@H](N)Cc1c[nH]cn1)[C@@H](C)O)C(C)C)C(C)C)C(=O)N[C@@H](C)C(=O)N[C@@](C)(Cc1ccccc1)C(=O)N[C@H](C(=O)N[C@H](C(=O)N[C@@](C)(CCCCN)C(=O)NCC(=O)NCC(N)=O)C(C)C)C(C)C [compound 10] (H-H[Aib]EGS[αMeF]TSDVSS[αMeF]VEGEAA[αMeK]E[αMeF]IA[αMeF]VV[αMeK]GG-NH2)
8 pM,EC50 [3]: 8.1 pM,CCCCCCCCCCCCCCCC(=O)N[C@@H](CCC(=O)NCCCC[C@H](NC(=O)[C@H](CCC(=O)O)NC(=O)[C@H](CC(C)C)NC(=O)[C@](C)(Cc1ccccc1)NC(=O)[C@H](CO)NC(=O)[C@](C)(CO)NC(=O)[C@@H](NC(=O)[C@H](CC(=O)O)NC(=O)[C@H](CO)NC(=O)[C@@H](NC(=O)[C@](C)(Cc1ccccc1)NC(=O)[C@H](CO)NC(=O)CNC(=O)[C@H](CCC(=O)O)NC(=O)C(C)(C)NC(=O)[C@@H](N)Cc1c[nH]cn1)[C@@H](C)O)C(C)C)C(=O)N[C@@H](CCC(=O)O)C(=O)N[C@@H](C)C(=O)N[C@@H](C)C(=O)N[C@@](C)(CCCCN)C(=O)N[C@@H](CCC(=O)O)C(=O)N[C@@](C)(Cc1ccccc1)C(=O)N[C@H](C(=O)N[C@@H](C)C(=O)N[C@@](C)(Cc1ccccc1)C(=O)N[C@H](C(=O)N[C@H](C(=O)N[C@@](C)(CCCCN)C(=O)NCC(=O)NCC(N)=O)C(C)C)C(C)C)[C@@H](C)CC)C(=O)O [compound 84] (H-H[Aib]EGS[αMeF]TSDV[αMeS]S[αMeF]LEK([γGlu-Palmitoyl])EAA[αMeK]E[αMeF]IA[αMeF]VV[αMeK]GG-NH2; N-terminus assumed)
,"EC50 [2]: 82 pM; EC50 (Table 11, tris-lipidated peptides, replicate n1, read-out: Primary assay EC50 GLP-1R n1): 69.5 pM; EC50 (Table 11, tris-lipidated peptides, replicate n2, read-out: Primary assay EC50 GLP-1R n2): 94.4 pM",CCCCCCCCCCCC(=O)N[C@@H](CCC(=O)NCCOCCOCC(=O)NCCOCCOCC(=O)NCCCC[C@H](NC(=O)[C@H](C)NC(=O)[C@@H](NC(=O)[C@H](Cc1ccccc1)NC(=O)[C@H](CCC(=O)O)NC(=O)[C@](C)(CCCCN)NC(=O)[C@H](C)NC(=O)[C@H](C)NC(=O)[C@H](CCC(=O)O)NC(=O)[C@H](CCCCNC(=O)COCCOCCNC(=O)COCCOCCNC(=O)CC[C@H](NC(=O)CCCCCCCCCCC)C(=O)O)NC(=O)[C@H](CCC(=O)O)NC(=O)[C@H](CC(C)C)NC(=O)[C@H](CCCCNC(=O)COCCOCCNC(=O)COCCOCCNC(=O)CC[C@H](NC(=O)CCCCCCCCCCC)C(=O)O)NC(=O)[C@H](CO)NC(=O)[C@](C)(CO)NC(=O)[C@@H](NC(=O)[C@H](CC(=O)O)NC(=O)[C@H](CO)NC(=O)[C@@H](NC(=O)[C@](C)(Cc1ccccc1)NC(=O)[C@H](CO)NC(=O)CNC(=O)[C@H](CCC(=O)O)NC(=O)C(C)(C)NC(=O)[C@@H](N)Cc1c[nH]cn1)[C@@H](C)O)C(C)C)[C@@H](C)CC)C(=O)N[C@H](C(=O)N[C@H](C(=O)N[C@@H](CCC(=O)O)C(=O)NCC(=O)NCC(N)=O)C(C)C)C(C)C)C(=O)O [compound 463] (H-H[Aib]EGS[αMeF]TSDV[αMeS]SK([AEEA-AEEA-γGlu-Lauroyl])LEK([AEEA-AEEA-γGlu-Lauroyl])EAA[αMeK]EFIAK([AEEA-AEEA-γGlu-Lauroyl])VVEGG-NH2; N-terminus assumed)
1860 pM,,CCCCCCCCCCCCCCCC(=O)N[C@@H](CCC(=O)NCCCC[C@H](NC(=O)[C@](C)(Cc1ccccc1)NC(=O)[C@H](CCC(=O)O)NC(=O)[C@](C)(CCCCN)NC(=O)[C@H](C)NC(=O)[C@H](C)NC(=O)[C@H](CCC(=O)O)NC(=O)CNC(=O)[C@H](CCC(=O)O)NC(=O)[C@H](CC(C)C)NC(=O)[C@](C)(Cc1ccccc1)NC(=O)[C@H](CO)NC(=O)[C@](C)(CO)NC(=O)[C@@H](NC(=O)[C@H](CC(=O)O)NC(=O)[C@H](CO)NC(=O)[C@@H](NC(=O)[C@](C)(Cc1ccccc1)NC(=O)[C@H](CO)NC(=O)CNC(=O)[C@H](CCC(=O)O)NC(=O)C(C)(C)NC(=O)[C@@H](N)Cc1c[nH]cn1)[C@@H](C)O)C(C)C)C(=O)N[C@@H](C)C(=O)N[C@@](C)(Cc1ccccc1)C(=O)N[C@H](C(=O)N[C@H](C(=O)N[C@@](C)(CCCCN)C(=O)NCC(=O)NCC(N)=O)C(C)C)C(C)C)C(=O)O [compound 77] (H-H[Aib]EGS[αMeF]TSDV[αMeS]S[αMeF]LEGEAA[αMeK]E[αMeF]K([γGlu-Palmitoyl])A[αMeF]VV[αMeK]GG-NH2; N-terminus assumed)
5.1 pM,,CC[C@H](C)[C@H](NC(=O)[C@H](Cc1ccccc1)NC(=O)[C@H](CCC(=O)O)NC(=O)[C@H](CCCCN)NC(=O)[C@H](C)NC(=O)[C@H](C)NC(=O)[C@H](CCC(N)=O)NC(=O)CNC(=O)[C@H](CCC(=O)O)NC(=O)[C@H](CC(C)C)NC(=O)[C@H](Cc1ccc(O)cc1)NC(=O)[C@H](CO)NC(=O)[C@H](CO)NC(=O)[C@@H](NC(=O)[C@H](CC(=O)O)NC(=O)[C@H](CO)NC(=O)[C@@H](NC(=O)[C@H](Cc1ccccc1)NC(=O)[C@@H](NC(=O)CNC(=O)[C@H](CCC(=O)O)NC(=O)C(C)(C)NC(=O)[C@@H](N)Cc1c[nH]cn1)[C@@H](C)O)[C@@H](C)O)C(C)C)C(=O)N[C@@H](C)C(=O)N[C@@H](Cc1c[nH]c2ccccc12)C(=O)N[C@@H](CC(C)C)C(=O)N[C@H](C(=O)N[C@@H](CCCCN)C(=O)NCC(=O)N[C@@H](CCCNC(=N)N)C(=O)N[C@@H](CCCCNC(=O)COCCOCCNC(=O)COCCOCCNC(=O)CC[C@H](NC(=O)CCCCCCCCCCCCCCCCC(=O)O)C(=O)O)C(N)=O)C(C)C [compound 6]
